Data: paper PMC3362725, “An open-label, phase 1 study evaluating safety, tolerability, and pharmacokinetics of linifanib (ABT-869) in Japanese patients with solid tumors” (Cancer Chemotherapy and Pharmacology, 2012)

Assay: Safety and tolerability: adverse events per CTCAE v3, dose-limiting toxicity, phase 1 study
Assay type: in vivo, human (Japanese patients with solid tumors)
Method: A standard 3 + 3 design determined the dose level assignment. Patients were assigned to one of four sequential dose cohorts of once-a-day dose regimen of oral linifanib: 0.05, 0.10, 0.20, or 0.25 mg/kg, administered in the morning. […] Dose-limiting toxicity (DLT) was defined as Grade 4 neutropenia lasting >7 days, Grade 4 thrombocytopenia or decreased hemoglobin, Grade 3 or greater thrombocytopenia (if blood transfusion was required), febrile neutropenia, non-hematological toxicity except for manageable nausea, vomiting, anorexia, diarrhea, constipation or electrolyte abnormality, or a toxicity that required suspension of study drug for >7 days.
Patients self-administered linifanib once daily, on a 21-day cycle after fasting, and treatment continued until disease progression or intolerable toxicity. […] The initial oral dose, 2.5–25.0 mg in increments of 2.5 mg, was determined by the patients’ weights. […] The dose was reduced by 5.0 mg for patients ≥86 kg in the 0.10 mg/kg cohort, for patients in the 0.20 mg/kg cohort who were ≥81 kg at the first reduction and 61–80 and ≥96 kg at the 2nd reduction, and for patients in the 0.25 mg/kg cohort who were ≥66 kg at the first reduction and ≥86 kg at the second reduction. Patients were discontinued if they required dose reduction, specified by cohort: Any reduction (0.05 mg/kg cohort); >1 reduction (0.10 mg/kg cohort, and patients ≤31 kg in the 0.20 mg/kg cohort with an initial 5 mg dose); >2 reductions (0.25 mg/kg cohort, and patients ≥32 kg in the 0.20 mg/kg cohort with an initial ≥7.5 mg dose).
Baseline evaluations included physical examination, body weight, vital signs, 12-lead electrocardiogram, ECOG PS assessment, pregnancy test, laboratory tests, and multiple-gated acquisition scan/echocardiogram. Tumor response and/or disease progression was assessed by computerized tomography (CT) scan or magnetic resonance imaging (MRI) per RECIST [20] at screening and on Day (D) 1 of every second cycle prior to the subsequent treatment period, until tumor progression or until final visit. Complete response and partial response (PR) were defined according to RECIST [20]; objective response rate (ORR) was defined as the proportion of patients with best response of PR or CR among the study population. Safety assessments included laboratory test results and adverse events (AEs), which were graded according to CTCAE v3 [18] and coded by medical dictionary of regulatory activities (MedDRA) 1.0.

Q: Which “Grade 3 linifanib-related AEs” value (0.05 mg/kg dose) does the source give for `Cc1ccc(F)c(NC(=O)Nc2ccc(-c3cccc4[nH]nc(N)c34)cc2)c1` [linifanib, N-(4-(3-amino-1H-indazol-4-yl)phenyl)-N’-(2-fluoro-5-methylphenyl)urea] here?
A: no Grade 3 linifanib-related AEs

Q: What about the “ALT increased, linifanib-related AE, patients” value (from here on “ALT increased”) (0.05 mg/kg n = 3, G1) of the same compound?
A: 1

Q: And the “AST increased, linifanib-related AE, patients” value (from here on “AST increased”) (0.05 mg/kg n = 3, G1)?
A: 1

Q: What about the “Anorexia, linifanib-related AE, patients” value (0.05 mg/kg n = 3, G1) of the same compound?
A: 1

Q: What about the “Blood ALKP increased, linifanib-related AE, patients” value (from here on “Blood ALKP increased”) (0.05 mg/kg n = 3, G1) of the same compound?
A: 1

Q: And the “Blood TG increased, linifanib-related AE, patients” value (“Blood TG increased” below) (0.05 mg/kg n = 3, G1)?
A: 1

Q: And the “Blood cholesterol increased, linifanib-related AE, patients” value (“Blood cholesterol increased” for short) (0.05 mg/kg n = 3, G1)?
A: 2

Q: And the “Blood urine present, linifanib-related AE, patients” value (shortened to “Blood urine present”) (0.05 mg/kg n = 3, G1)?
A: 1

Q: What about the “Diarrhea, linifanib-related AE, patients” value (0.05 mg/kg n = 3, G1) of the same compound?
A: 1

Q: And the “Hypertension, linifanib-related AE, patients” value (“Hypertension … patients” for short) (0.05 mg/kg n = 3, G1)?
A: 1

Q: What about the “Neutropenia, linifanib-related AE, patients” value (“Neutropenia … patients” below) (0.05 mg/kg n = 3, G1) of the same compound?
A: 2

Q: What about the “Rash, linifanib-related AE, patients” value (0.05 mg/kg n = 3, G1) of the same compound?
A: 1

Q: And the “Weight decreased, linifanib-related AE, patients” value (“Weight decreased” below) (0.05 mg/kg n = 3, G1)?
A: 2

Q: What about the “Blood ALKP increased” value (0.05 mg/kg n = 3, G2) of the same compound?
A: 1

Q: What about the “Hypertension … patients” value (0.05 mg/kg n = 3, G2) of the same compound?
A: 2

Q: What about the dose-limiting toxicity observed (0.10 mg/kg cohort, one patient) of the same compound?
A: Grade 3 ALT increase

Q: And the “Grade 3 linifanib-related AEs” value (0.10 mg/kg dose)?
A: three

Q: And the “ALT increased” value (0.10 mg/kg n = 6, G1)?
A: 2

Q: And the “AST increased” value (0.10 mg/kg n = 6, G1)?
A: 4

Q: And the “Anorexia, linifanib-related AE, patients” value (0.10 mg/kg n = 6, G1)?
A: 2

Q: And the “Blood ALKP increased” value (0.10 mg/kg n = 6, G1)?
A: 1

Q: What about the “Blood TG increased” value (0.10 mg/kg n = 6, G1) of the same compound?
A: 3

Q: And the “Blood TSH increased, linifanib-related AE, patients” value (0.10 mg/kg n = 6, G1)?
A: 3

Q: And the “Blood cholesterol increased” value (0.10 mg/kg n = 6, G1)?
A: 3

Q: What about the “Blood urine present” value (0.10 mg/kg n = 6, G1) of the same compound?
A: 2

Q: What about the “Diarrhea, linifanib-related AE, patients” value (0.10 mg/kg n = 6, G1) of the same compound?
A: 3

Q: And the “Fatigue, linifanib-related AE, patients” value (0.10 mg/kg n = 6, G1)?
A: 1

Q: And the “GGT increased, linifanib-related AE, patients” value (shortened to “GGT increased”) (0.10 mg/kg n = 6, G1)?
A: 3

Q: And the “Leukopenia, linifanib-related AE, patients” value (shortened to “Leukopenia … patients”) (0.10 mg/kg n = 6, G1)?
A: 2

Q: What about the “Neutropenia … patients” value (0.10 mg/kg n = 6, G1) of the same compound?
A: 1

Q: And the “Proteinuria, linifanib-related AE, patients” value (“Proteinuria … patients” for short) (0.10 mg/kg n = 6, G1)?
A: 1

Q: What about the “Rash, linifanib-related AE, patients” value (0.10 mg/kg n = 6, G1) of the same compound?
A: 3

Q: And the “Thrombocytopenia, linifanib-related AE, patients” value (0.10 mg/kg n = 6, G1)?
A: 1

Q: And the “Weight decreased” value (0.10 mg/kg n = 6, G1)?
A: 2

Q: And the “Blood TG increased” value (0.10 mg/kg n = 6, G2)?
A: 1

Q: And the “Fatigue, linifanib-related AE, patients” value (0.10 mg/kg n = 6, G2)?
A: 1

Q: What about the “GGT increased” value (0.10 mg/kg n = 6, G2) of the same compound?
A: 1

Q: What about the “Hypertension … patients” value (0.10 mg/kg n = 6, G2) of the same compound?
A: 5

Q: What about the “Leukopenia … patients” value (0.10 mg/kg n = 6, G2) of the same compound?
A: 1

Q: What about the “Palmar-plantar erythrodysaesthesia, linifanib-related AE, patients” value (0.10 mg/kg n = 6, G2) of the same compound?
A: 3

Q: And the “Proteinuria … patients” value (0.10 mg/kg n = 6, G2)?
A: 2

Q: What about the “Thrombocytopenia, linifanib-related AE, patients” value (0.10 mg/kg n = 6, G2) of the same compound?
A: 1

Q: And the “Weight decreased” value (0.10 mg/kg n = 6, G2)?
A: 1

Q: What about the “Neutropenia … patients” value (0.10 mg/kg n = 6, G3) of the same compound?
A: 1

Q: What about the “Proteinuria … patients” value (0.10 mg/kg n = 6, G3) of the same compound?
A: 1

Q: What about the “ALT increased” value (0.20 mg/kg n = 3, G1) of the same compound?
A: 2

Q: What about the “AST increased” value (0.20 mg/kg n = 3, G1) of the same compound?
A: 2

Q: What about the “Anorexia, linifanib-related AE, patients” value (0.20 mg/kg n = 3, G1) of the same compound?
A: 1

Q: And the “Blood ALKP increased” value (0.20 mg/kg n = 3, G1)?
A: 1

Q: What about the “Blood TG increased” value (0.20 mg/kg n = 3, G1) of the same compound?
A: 3

Q: And the “Blood TSH increased, linifanib-related AE, patients” value (0.20 mg/kg n = 3, G1)?
A: 3

Q: What about the “Blood cholesterol increased” value (0.20 mg/kg n = 3, G1) of the same compound?
A: 2

Q: What about the “Blood urine present” value (0.20 mg/kg n = 3, G1) of the same compound?
A: 2

Q: And the “Diarrhea, linifanib-related AE, patients” value (0.20 mg/kg n = 3, G1)?
A: 1

Q: What about the “Fatigue, linifanib-related AE, patients” value (0.20 mg/kg n = 3, G1) of the same compound?
A: 1

Q: And the “GGT increased” value (0.20 mg/kg n = 3, G1)?
A: 1

Q: What about the “Leukopenia … patients” value (0.20 mg/kg n = 3, G1) of the same compound?
A: 2

Q: And the “Rash, linifanib-related AE, patients” value (0.20 mg/kg n = 3, G1)?
A: 1

Q: And the “T-wave abnormality, linifanib-related AE, patients” value (0.20 mg/kg n = 3, G1)?
A: 1

Q: What about the “Weight decreased” value (0.20 mg/kg n = 3, G1) of the same compound?
A: 1

Q: What about the “Anorexia, linifanib-related AE, patients” value (0.20 mg/kg n = 3, G2) of the same compound?
A: 1

Q: What about the “Blood cholesterol increased” value (0.20 mg/kg n = 3, G2) of the same compound?
A: 1

Q: What about the “Fatigue, linifanib-related AE, patients” value (0.20 mg/kg n = 3, G2) of the same compound?
A: 1

Q: What about the “Hypertension … patients” value (0.20 mg/kg n = 3, G2) of the same compound?
A: 2
